According to US20120077843A1, “MALIGNANT PRECURSOR CELLS FROM DUCTAL CARCINOMA IN SITU LESIONS” (George Mason Intellectual Properties, Inc., priority 2009, published 2012):
Where two headings read alike, the source gives them in different places.

Columns and labels:
[1] = system: autophagy associated signal pathway proteins in DCIS spheroids; test: Cell signaling pathway mapping by reverse phase protein microarray (RPMA) of spheroids pre and post chloroquine; type: cell-based, human; details: for autophagy associated signal pathway proteins (Atg5, AKT, ERK, mTOR, IRS-1, p38 etc.) by RPMA: spheroids pre and post chloroquine phosphate 50 μM for 4 days, n=3
Procedure: (§1) Pharmacological inhibition of autophagy. […] CO-containing medium was replaced three times per week for a period of 6 months.
(§2) Statistics. The Student T-test, two tailed with Welch's correction, was used to calculate the p-value, and to determine the statistical difference of epithelial outgrowth area before and after CQ treatment. P values <0.05 were considered significant. Standard deviation (SO) or standard error of the mean (SEM) was calculated for group comparisons. Wilcoxon rank sum was used to determine the differences between CQ treated and untreated groups for the reverse phase protein arrays. A p=0.1 was considered different for small sample sizes.

[2] = system: DCIS organoid culture spheroids; test: Autophagosome lysosome imaging with LysoTracker Red; type: cell-based, human; details: chloroquine phosphate 50 μM for 2 weeks
[3] = system: DCIS malignant precursor cells; test: Ex vivo invasion of autologous breast stroma in organoid culture; type: cell-based, human; details: chloroquine phosphate treated organ culture
Procedure: (§3) Organoid ex vivo culture. Dissected breast ductal tissue was grown in 115 cm^2 TPP reclosable flasks (MidSci) or 10 cm^2 culture tubes (MidSci) in serum free DMEM/F12 medium supplemented with human recombinant EGF (10 ng/mL), insulin (10 μg/mL), streptomycin sulfate (100 μg/mL) and gentamicin sulfate (20 μg/mL), with or without 0.36% (v/v) murine Engelbreth-Holm-Swarm (EHS) derived, growth factor reduced, basement membrane extract (Trevigen, Gaithersburg, Md., USA) at 37° C. in a humidified 5.0% CO2 atmosphere. Medium was replaced three times per week. Cultures were maintained continuously for up to one year. Periodically, organoids were removed, under microscopic visualization, for propagation into new culture flasks or phenotypic and molecular analysis.
as §1

[4] = system: DCIS organoid cell cultures; test: Histomorphology (H&E of FFPE sections) of chloroquine treated DCIS organoids; type: cell-based, human; details: for histology of intraductal epithelial cells / remaining adherent cells: chloroquine phosphate 50 μM, FIG. 14D
Procedure: as §1
Immunohistochemistry. Formalin fixed murine tissue or DCIS organoids were processed and paraffin embedded by commercial laboratories (AML Laboratories, Inc, Rosedale, Md. or Bi-Biomics, Nampa, Id.). Formalin fixed paraffin embedded (FFPE) tissue sections (5 μm or 1 μm thickness) mounted on positively charged glass slides were baked at 56° C. for 20 min., deparaffinized in xylene and rehydrated in a series of graded alcohols (100%, 95%, and 70%) with a final rinse in wash buffer (Dako, Carpinteria, Calif., USA). Antigen retrieval, when necessary, was performed with proteinase K or heat induced epitope retrieval. Immunostaining was performed on a Dako Autostainer with an Envision+HRP staining kit (Dako) per manufacturer's instructions. Stained tissue sections were counterstained with Hematoxylin (Dako), rinsed in distilled water and developed in Scott's Tap Water Substitute solution. Cover slips were applied using aqueous mounting medium (Faramount; Dako). Images were captured with an Olympus BX51 microscope using 4×, 10×, 20×, or 100× objectives.

[5] = system: human DCIS spheroids; details: for spheroid and 3-D structure formation (in words): DCIS organoid cultures, untreated up to 113 spheroids per duct organoid
Procedure: Tissue collection. […] Gross tissue pathology at the time of procurement was assessed by a board certified pathologist. Tissue containing DCIS lesions was excised for further macrodissection and rinsed in sterile phosphate buffered saline to remove sentinel lymph node dye. Using sterile technique, ductal tissue was dissected from surrounding breast adipose/fibrous tissue. The ductal tissue was rinsed in serum free DMEM/F 12 medium (Invitrogen, Carlsbad, Calif., USA) supplemented with human recombinant EGF (10 ng/mL; Cell Signaling Technology, Danvers, Mass., USA or Millipore, Billerica, Mass., USA), insulin (10 μg/mL; Roche, Indianapolis, Ind., USA), streptomycin sulfate (100 μg/mL; Sigma, St. Louis, Mo., USA) and gentamicin sulfate (20 μg/mL; Sigma) prior to distribution in culture flasks (MidSci, St. Louis, Mo., USA). Ductal tissue was allowed to attach to the culture surface and observed daily for cellular outgrowths. Non-adherent organoids were removed from the culture flask.
as §3, §1, §2

[6] = listed as chloroquine phosphate

CCN(CC)CCCC(C)Nc1ccnc2cc(Cl)ccc12 (stereo not shown) [chloroquine, N′-(7-chloroquinolin-4-yl)-N,N-diethyl-pentane-1,4-diamine]
apoptosis (elevation of cleaved PARP Asp214) ([1]; as early as 48 hours post treatment): induced apoptosis | autophagy associated signal pathway proteins (Atg5, AKT, ERK, mTOR, IRS-1, p38 etc.) by RPMA ([1]; listed as CQ): suppressed | autophagy associated signal pathway proteins (Atg5, AKT, ERK, mTOR, IRS-1, p38 etc.) by RPMA ([1]; listed as Chloroquine): markedly inhibited | autophagy associated signal pathway proteins (Atg5, AKT, ERK, mTOR, IRS-1, p38 etc.) by RPMA [1, 6]: suppressed autophagy associated proteins | spheroid integrity and LysoTracker Red distribution [2]: Dissociation of the spheroid, and diffuse accumulation of LysoTracker Red | ex vivo invasion of autologous stroma [3]: suppressed ex vivo invasion | histology of invading DCIS cells within the organoid ([4]; 2 days post chloroquine treatment, 50 μM): Degeneration of the invading DCIS cells | histology of intraductal epithelial cells / remaining adherent cells [4]: Cellular swelling and apparent apoptotic death | histology of intraductal epithelial cells / remaining adherent cells ([4]; listed as CQ): lysosomal engorgement | histology of DCIS organoid cultured with chloroquine long term ([4]; cultured in the presence of chloroquine for 6 months, 50 μM): complete absence of cellular outgrowths | spheroid and 3-D structure formation (in words) [5]: zero for the majority of explants | spheroid and 3-D structure formation (in words) ([5]; listed as CQ): virtually abolished | spheroid and 3-D structure formation (in words) [5, 6]: completely suppressed | explants without any spheroids following chloroquine treatment ([5]; case 09-148, 14 explants): 12 out of 14 | spheroids observed after treatment ([5]; case 09-301, n=3, prior to treatment 20.5±7.8): no spheroids observed | inhibition of spheroid outgrowth, CQ in combination with tamoxifen ([5]; cultured DCIS cells, combination with anti-estrogen compound (tamoxifen)): pronounced effect
